Measured values published in US4223038A, “Bicyclic β-lactam antibiotics” (Beecham Group Limited, priority 1977, dated 1980).
Read-outs that look alike come from different tables or passages of the source. Each block holds one compound with its values, some of them ahead of it.

Key:
β-lactamase, E. Coli JT4 [1] = molecular target: T1, β-lactamase, E. Coli JT4 (Escherichia coli, UniProt P62593); experiment: β-Lactamase inhibition, automated chromagenic substrate assay; format: biochemical; conditions: read-out: concentration of compound for 50% inhibition of enzyme (converted)
T1 construct: preparation not described
Description: (§1) Method was automated hydroxyamine assay except for compounds marked + which were tested using the automated chromagenic substrate assay.
(§2) Results are presented as concentration of compounds in μg/ml for 50% inhibition of enzyme, except a percentage indicates amount of inhibition at maximum concentration of 20 μg/ml (50 μg/ml for asterisked figures).

[2] = molecular target: β-lactamase, Kleb aerog E70; experiment: as above; format: biochemical
Description: as §1, §2

[3] = molecular target: T2, β-lactamase, Ent. Cloacae P99 (Enterobacter cloacae, UniProt P05364); experiment: as above; format: biochemical; conditions: for IC50: read-out: concentration of compound for 50% inhibition of enzyme (converted); for inhibition at 50 µg/mL: at 50 μg/ml (asterisked), read-out: amount of inhibition at maximum concentration
T2 construct: preparation not described
Description: as §1, §2

[4] = molecular target: T3, β-lactamase, Staph aureus Russel (Staphylococcus aureus, UniProt P00807); experiment: as above; format: biochemical; conditions: at 50 μg/ml (asterisked), read-out: amount of inhibition at maximum concentration
Description: as §1, §2

β-lactamase, E. Coli JT4 [5] = molecular target: T1, β-lactamase, E. Coli JT4; experiment: β-Lactamase inhibition, automated hydroxyamine assay; format: biochemical; conditions: for inhibition at 20 µg/mL: read-out: amount of inhibition at maximum concentration; for IC50: maximum concentration 20 μg/ml, read-out: concentration of compound for 50% inhibition of enzyme (converted)
Description: as §1, §2

[6] = molecular target: T2, β-lactamase, Ent. Cloacae P99; experiment: as above; format: biochemical; conditions: for IC50: maximum concentration 20 μg/ml, read-out: concentration of compound for 50% inhibition of enzyme (converted); for inhibition at 20 µg/mL: at 20 μg/ml, read-out: amount of inhibition at maximum concentration
Description: as §1, §2

β-lactamase, Ps aerug A [7] = experiment: as above; format: biochemical; conditions: for amount of inhibition at maximum concentration: at 20 μg/ml
Description: as §1, §2

[8] = molecular target: T3, β-lactamase, Staph aureus Russel; experiment: as above; format: biochemical; conditions: at 20 μg/ml, read-out: amount of inhibition at maximum concentration
Description: as §1, §2

[9] = system: β-lactamase, P. Mirab C889; experiment: as above; format: biochemical; conditions: for concentration of compound for 50% inhibition of enzyme: maximum concentration 20 μg/ml
Description: as §1, §2

[10] = Tolerance of maximum total dose in the mouse infection experiment; format: in vivo; conditions: mice; subcutaneous; maximum total dose 100 mg/kg
Description: (§3) Antibacterial activity in vivo [drawing 117] Experimental model: Mouse intraperitoneal infection Micro-organism: Escherichia coli 8 suspended in 3% AL1 mucin plus 1% carboxymethylcellulose
(§4) Dosing route: Subcutaneous
(§5) Dosing schedule: 1, 1.5, 2, 2.5 hours after infection
Maximum total dose was 100 mg/kg and this was tolerated by the mice.

Escherichia coli 8 = experiment: Antibacterial activity in vivo, mouse intraperitoneal infection; conditions: Expt R21 and R23
Description: as §3, §4, §5

β-lactamase, Ps aerug A [11] = experiment: β-Lactamase inhibition, automated chromagenic substrate assay; format: biochemical; conditions: at 50 μg/ml (asterisked)
Description: as §1, §2

[12] = molecular target: β-lactamase, P. Mirab C889; experiment: as above; format: biochemical
Description: as §1, §2

[13] = E. Coli JT4 β-lactamase, hydroxyamine assay, at 20 μg/ml
[14] = E. Coli JT4 β-lactamase, hydroxyamine assay

T1 sequence (P62593 24-286 limits assumed): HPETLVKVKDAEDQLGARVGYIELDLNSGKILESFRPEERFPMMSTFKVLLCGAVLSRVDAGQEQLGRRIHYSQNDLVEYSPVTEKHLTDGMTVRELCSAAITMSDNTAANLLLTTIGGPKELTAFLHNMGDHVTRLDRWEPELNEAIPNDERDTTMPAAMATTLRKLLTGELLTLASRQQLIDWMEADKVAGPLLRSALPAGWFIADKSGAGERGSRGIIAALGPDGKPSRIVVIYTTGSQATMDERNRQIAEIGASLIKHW
T2 sequence (P05364 21-381): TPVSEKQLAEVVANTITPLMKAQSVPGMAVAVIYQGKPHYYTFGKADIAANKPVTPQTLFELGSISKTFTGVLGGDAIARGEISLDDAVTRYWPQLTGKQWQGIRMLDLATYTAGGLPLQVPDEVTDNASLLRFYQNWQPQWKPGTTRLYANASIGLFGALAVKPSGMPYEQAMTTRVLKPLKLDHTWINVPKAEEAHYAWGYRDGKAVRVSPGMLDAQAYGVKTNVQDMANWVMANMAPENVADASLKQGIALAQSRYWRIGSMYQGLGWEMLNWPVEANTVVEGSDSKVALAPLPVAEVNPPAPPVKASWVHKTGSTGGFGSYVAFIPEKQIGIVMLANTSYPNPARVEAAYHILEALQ

SMILES: CC(O)[C@@H]1C(=O)N2C(C(=O)OCc3ccccc3)=C([S+]([O-])c3ccccc3)C[C@H]12 (relative stereo) [Compound 82, Benzyl trans-6-(1-hydroxyethyl)-7-oxo-3-phenylsulphinyl-1-azabicyclo[3.2.0]hept-2-ene-2-carboxylate]
IC50 (β-lactamase, E. Coli JT4 [1]): 31.6 µM
concentration of compound for 50% inhibition of enzyme [2]: 2 µg/mL
IC50 [3]: 46.2 µM
inhibition at 50 µg/mL [4]: 20%

SMILES: CC[S+]([O-])C1=C(C(=O)OCc2ccccc2)N2C(=O)[C@@H](C(C)(C)O)[C@H]2C1 (relative stereo) [Compound 84, Benzyl 3-ethylsulphinyl-trans-6-(2-hydroxy-2-propyl)-7-oxo-1-azabicyclo[3.2.0]hept-2-ene-2-carboxylate]
inhibition at 20 µg/mL (β-lactamase, E. Coli JT4 [5]; [13]): 16%
IC50 [6]: 10.3 µM
concentration of compound for 50% inhibition of enzyme (β-lactamase, Ps aerug A [7]; maximum concentration 20 μg/ml): 12.1 µg/mL

SMILES: CC[S+]([O-])C1=C(C(=O)OCc2ccccc2)N2C(=O)[C@@H](C(C)(C)O)[C@H]2C1 (relative stereo) [Compound 86, Benzyl 3-ethylsulphinyl-trans-6-(2-hydroxy-2-propyl)-7-oxo-1-aza-bicyclo[3.2.0]hept-2-ene-2-carboxylate]
IC50 [6]: 6.62 µM

SMILES: CC[S+]([O-])C1=C(C(=O)OCc2ccccc2)N2C(=O)[C@H](C(C)(C)O)[C@H]2C1 (relative stereo) [Compound 88, Benzyl 3-ethylsulphinyl-cis-6-(2-hydroxy-2-propyl)-7-oxo-1-azabicyclo[3.2.0]hept-2-ene-2-carboxylate]
IC50 (β-lactamase, E. Coli JT4 [5]; [14]): 21.2 µM
IC50 [6]: 21.7 µM
inhibition at 20 µg/mL [8]: 19%
amount of inhibition at maximum concentration (β-lactamase, Ps aerug A [7]): 23%
amount of inhibition at maximum concentration ([9]; at 20 μg/ml): 13%

inhibition at 20 µg/mL [6]: 31%
concentration of compound for 50% inhibition of enzyme [9]: 1.2 µg/mL
SMILES: CC[S+]([O-])C1=C(C(=O)OCC(=O)c2ccc(Br)cc2)N2C(=O)C(CC=CC(=O)OC)C2C1 (single isomer, unassigned) [Compound 73, p-Bromophenacyl 3-ethylsulphinyl-6-(3-methoxycarbonylprop-2-en-1-yl)-7-oxo-1-azabicyclo[3.2.0]hept-2-ene-2-carboxylate]

SMILES: CC[S+]([O-])C1=C(C(=O)OCc2ccccc2)N2C(=O)CC2C1 (centres unmarked) [Compound 55, Benzyl 3-ethylsulphinyl-7-oxo-1-azabicyclo[3.2.0]hept-2-ene-2-carboxylate]
tolerance of maximum total dose [10]: tolerated
ED50 (Escherichia coli 8; Escherichia coli, 8, sc, 2.5 h, mouse i.p. infection with Escherichia coli 8, subcutaneous dosing 1, 1.5, 2, 2.5 hours after infection, total dose, read-out: CD50 Value mg/kg (total dose)): 5.2 mg/kg
CD50 Value mg/kg (total dose) (Escherichia coli 8; mouse i.p. infection with Escherichia coli 8, subcutaneous dosing 1, 1.5, 2, 2.5 hours after infection): 8.8 mg/kg
inhibition at 20 µg/mL (β-lactamase, E. Coli JT4 [5]): 28%
concentration of compound for 50% inhibition of enzyme [9]: 4 µg/mL

SMILES: CC[S+]([O-])C1=C(C(=O)OCc2ccccc2)N2C(=O)CC2C1 (centres unmarked) [Compound 57, Benzyl 3-ethylsulphinyl-7-oxo-1-azabicyclo[3.2.0]hept-2-ene-2-carboxylate]
IC50 (β-lactamase, E. Coli JT4 [1]): 28.2 µM
amount of inhibition at maximum concentration ([2]; at 50 μg/ml (asterisked)): 17%
inhibition at 50 µg/mL [3]: 19%
amount of inhibition at maximum concentration (β-lactamase, Ps aerug A [11]): 47%
concentration of compound for 50% inhibition of enzyme [12]: 3.5 µg/mL

SMILES: CC(=O)NCC[S+]([O-])C1=C(C(=O)OCc2ccccc2)N2C(=O)CC2C1 (centres unmarked) [Compound 63, Benzyl 3-(2-acetamidoethylsulphinyl)-7-oxo-1-azabicyclo[3.2.0]hept-2-ene-2-carboxylate]
inhibition at 20 µg/mL (β-lactamase, E. Coli JT4 [5]; [13]): 29%
inhibition at 20 µg/mL [6]: 16%
concentration of compound for 50% inhibition of enzyme [9]: 3.3 µg/mL

SMILES: CC(=O)Nc1ccc([S+]([O-])C2=C(C(=O)OCc3ccccc3)N3C(=O)CC3C2)cc1 (centres unmarked) [Compound 65, Benzyl 3-p-acetamidophenylsulphinyl-7-oxo-1-azabicyclo[3.2.0]hept-2-ene-2-carboxylate]
IC50 (β-lactamase, E. Coli JT4 [1]): 0.825 µM
inhibition at 50 µg/mL [3]: 47%
inhibition at 50 µg/mL [4]: 35%

SMILES: CC(=O)Nc1ccc([S+]([O-])C2=C(C(=O)OCc3ccccc3)N3C(=O)CC3C2)cc1 (centres unmarked) [Compound 67, Benzyl 3-p-acetamidophenylsulphinyl-7-oxo-1-azabicyclo[3,2,0]hept-2-ene-2-carboxylate]
IC50 (β-lactamase, E. Coli JT4 [1]): 1.84 µM
IC50 [3]: 118 µM

SMILES: COC(=O)C=CCC1C(=O)N2C1CC(Cl)([S+]([O-])c1ccccc1)C2C(=O)OCc1ccccc1 (stereo not drawn) [Compound 68, Benzyl 3-chloro-6-(3-methoxycarbonylprop-2-ene-1-yl)-7-oxo-3-phenylsulphinyl-1-azabicyclo[3.2.0]heptane-2α-carboxylate]
IC50 (β-lactamase, E. Coli JT4 [5]; [14]): 15.9 µM
inhibition at 20 µg/mL [6]: 25%
concentration of compound for 50% inhibition of enzyme [9]: 0.6 µg/mL

SMILES: COC(=O)C=CCC1C(=O)N2C(C(=O)OCc3ccccc3)=C([S+]([O-])c3ccccc3)CC12 (centres unmarked) [Compound 69, Benzyl 6-(3-methoxycarbonylprop-2-en-1-yl)-7-oxo-3-phenylsulphnyl-1-azabicyclo[3.2.0]hept-2-ene-2-carboxylate]
IC50 (β-lactamase, E. Coli JT4 [5]; [14]): 26.2 µM
inhibition at 20 µg/mL [6]: 23%
amount of inhibition at maximum concentration (β-lactamase, Ps aerug A [7]): 44%
concentration of compound for 50% inhibition of enzyme [9]: 2.4 µg/mL

SMILES: COC(=O)C=CCC1C(=O)N2C(C(=O)OCc3ccccc3)=C([S+]([O-])c3ccccc3)CC12 (centres unmarked) [Compound 71, Benzyl 6-(3-methoxycarbonylprop-2-en-1-yl)-7-oxo-3-phenylsulphinyl-1-azabicyclo[3.2.0]hept-2-ene-2-carboxylate]
IC50 (β-lactamase, E. Coli JT4 [5]; [14]): 18.3 µM
concentration of compound for 50% inhibition of enzyme [9]: 2.0 µg/mL

SMILES: CC[S+]([O-])C1=C(C(=O)OC2OC(=O)c3ccccc32)N2C(=O)C(CC=CC(=O)OC)C2C1 (centres unmarked) [Compound 78, Phthalidyl 3-ethylsulphinyl-6-(3-methoxycarbonylprop-2-en-1-yl)-7-oxo-1-azabicyclo[3.2.0]hept-2-ene-2-carboxylate]
inhibition at 20 µg/mL (β-lactamase, E. Coli JT4 [5]; [13]): 16%
IC50 [6]: 19.2 µM

SMILES: CC[S+]([O-])C1=C(C(=O)OCc2ccccc2)N2C(=O)C(Cc3ccccc3)C2C1 (centres unmarked) [Compound 80, Benzyl 6-benzyl-3-ethylsulphinyl-7-oxo-1-azabicyclo[3.2.0]hept-2-ene-2-carboxylate]
IC50 (β-lactamase, E. Coli JT4 [1]): 20.8 µM
concentration of compound for 50% inhibition of enzyme [2]: 24 µg/mL
IC50 [3]: 52 µM
